Experimental data reported in ChEMBL document CHEMBL4673237, “Annulation reaction enables the identification of an exocyclic amide tricyclic chemotype as retinoic acid Receptor-Related orphan receptor gamma (RORγ/RORc) inverse agonists” (Bioorg Med Chem Lett, 2020).

Columns and labels:
[1] = Metabolic stability in mouse liver microsomes assessed as parent compound remaining; format: ADME, Microsome
[2] = Metabolic stability in human liver microsomes assessed as parent compound remaining; format: ADME, Microsome
[3] = Protein binding in human serum assessed as unbound fraction; format: ADME, cell-free
[4] = target: T1, Nuclear receptor subfamily 1 group I member 2 (Homo sapiens, UniProt O75469); assay: Inhibition of PXR (unknown origin); conditions: dose >50 µM
T1 sequence (O75469 whole entry): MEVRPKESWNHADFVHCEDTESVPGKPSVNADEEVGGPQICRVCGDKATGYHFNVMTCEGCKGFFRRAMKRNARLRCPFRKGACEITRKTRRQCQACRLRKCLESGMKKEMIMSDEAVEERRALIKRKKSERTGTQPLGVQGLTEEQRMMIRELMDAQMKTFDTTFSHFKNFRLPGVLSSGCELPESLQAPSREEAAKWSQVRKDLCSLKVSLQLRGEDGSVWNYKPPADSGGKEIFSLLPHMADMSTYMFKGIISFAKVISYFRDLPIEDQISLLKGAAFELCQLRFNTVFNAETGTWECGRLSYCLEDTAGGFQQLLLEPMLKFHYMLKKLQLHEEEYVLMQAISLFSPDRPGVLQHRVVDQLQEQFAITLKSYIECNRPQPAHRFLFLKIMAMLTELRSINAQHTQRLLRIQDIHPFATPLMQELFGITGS

[5] = target: T2, Cytochrome P450 1A2 (Homo sapiens, UniProt P05177); assay: Inhibition of recombinant CYP1A2 (unknown origin); format: ADME; conditions: recombinant enzyme, dose >10 µM
T2 sequence (P05177 whole entry): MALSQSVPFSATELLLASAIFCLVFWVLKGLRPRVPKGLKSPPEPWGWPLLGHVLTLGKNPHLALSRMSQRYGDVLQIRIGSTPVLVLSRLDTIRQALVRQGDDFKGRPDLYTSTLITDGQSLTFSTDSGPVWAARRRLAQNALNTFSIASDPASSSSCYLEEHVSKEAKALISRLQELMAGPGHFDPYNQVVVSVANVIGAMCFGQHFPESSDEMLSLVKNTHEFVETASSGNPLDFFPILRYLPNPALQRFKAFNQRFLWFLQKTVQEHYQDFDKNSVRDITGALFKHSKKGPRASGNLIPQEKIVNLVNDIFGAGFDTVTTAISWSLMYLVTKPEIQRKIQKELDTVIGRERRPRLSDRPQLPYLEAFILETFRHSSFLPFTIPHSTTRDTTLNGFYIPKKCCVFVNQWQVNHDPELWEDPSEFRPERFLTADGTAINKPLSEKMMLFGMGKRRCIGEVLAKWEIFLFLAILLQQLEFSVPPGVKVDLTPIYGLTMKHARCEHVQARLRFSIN

[6] = Metabolic stability in human liver microsomes assessed as half life
[7] = Permeability from apical side to basolateral side in human Caco-2 cells; format: ADME, cell-based; conditions: read-out: permeability
[8] = target: Cytochrome P450 2C19 (Homo sapiens, UniProt P33261); assay: Inhibition of recombinant CYP2C19 (unknown origin); format: ADME; conditions: recombinant enzyme, dose >10 µM
[9] = target: Cytochrome P450 2C9 (Homo sapiens, UniProt P11712); assay: Inhibition of recombinant CYP2C9 (unknown origin); format: ADME; conditions: recombinant enzyme, dose >10 µM
[10] = Protein binding in mouse serum assessed as unbound fraction; format: ADME, cell-free
[11] = target: T3, Cytochrome P450 2C8 (Homo sapiens, UniProt P10632); assay: Inhibition of recombinant CYP2C8 (unknown origin); format: ADME; conditions: recombinant enzyme, dose >10 µM
T3 sequence (P10632 whole entry): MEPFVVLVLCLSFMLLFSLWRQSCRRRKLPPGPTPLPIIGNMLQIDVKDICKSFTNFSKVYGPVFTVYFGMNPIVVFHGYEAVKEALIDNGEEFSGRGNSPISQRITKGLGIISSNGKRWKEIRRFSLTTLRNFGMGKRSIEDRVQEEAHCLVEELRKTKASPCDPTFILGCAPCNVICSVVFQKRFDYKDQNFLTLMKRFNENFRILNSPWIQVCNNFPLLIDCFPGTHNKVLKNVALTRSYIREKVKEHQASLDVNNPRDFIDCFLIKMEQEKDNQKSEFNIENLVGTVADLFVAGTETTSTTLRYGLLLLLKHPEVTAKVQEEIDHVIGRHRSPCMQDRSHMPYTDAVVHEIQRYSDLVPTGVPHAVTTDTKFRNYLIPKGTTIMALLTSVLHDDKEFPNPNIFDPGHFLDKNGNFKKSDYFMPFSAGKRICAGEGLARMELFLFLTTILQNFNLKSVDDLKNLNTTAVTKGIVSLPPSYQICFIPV

[12] = target: Cytochrome P450 2D6 (Homo sapiens, UniProt P10635); assay: Inhibition of recombinant CYP2D6 (unknown origin); format: ADME; conditions: recombinant enzyme, dose >10 µM
[13] = Metabolic stability in mouse liver microsomes assessed as half life

Chain of Cytochrome P450 2C19 (P33261 whole entry): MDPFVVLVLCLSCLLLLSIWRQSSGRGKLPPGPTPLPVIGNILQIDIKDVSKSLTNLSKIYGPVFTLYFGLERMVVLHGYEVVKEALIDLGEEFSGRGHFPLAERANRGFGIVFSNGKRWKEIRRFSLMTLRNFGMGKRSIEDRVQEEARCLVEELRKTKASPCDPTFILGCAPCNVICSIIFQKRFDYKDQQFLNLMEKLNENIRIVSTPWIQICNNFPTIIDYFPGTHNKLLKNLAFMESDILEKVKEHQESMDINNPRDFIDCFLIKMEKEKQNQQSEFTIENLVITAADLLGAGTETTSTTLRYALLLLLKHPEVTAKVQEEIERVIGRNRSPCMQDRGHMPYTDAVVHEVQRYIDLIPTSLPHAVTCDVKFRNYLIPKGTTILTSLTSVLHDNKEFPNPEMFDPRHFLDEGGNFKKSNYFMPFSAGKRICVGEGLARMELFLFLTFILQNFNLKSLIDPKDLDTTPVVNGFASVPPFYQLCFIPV
Chain of Cytochrome P450 2D6 (P10635 whole entry): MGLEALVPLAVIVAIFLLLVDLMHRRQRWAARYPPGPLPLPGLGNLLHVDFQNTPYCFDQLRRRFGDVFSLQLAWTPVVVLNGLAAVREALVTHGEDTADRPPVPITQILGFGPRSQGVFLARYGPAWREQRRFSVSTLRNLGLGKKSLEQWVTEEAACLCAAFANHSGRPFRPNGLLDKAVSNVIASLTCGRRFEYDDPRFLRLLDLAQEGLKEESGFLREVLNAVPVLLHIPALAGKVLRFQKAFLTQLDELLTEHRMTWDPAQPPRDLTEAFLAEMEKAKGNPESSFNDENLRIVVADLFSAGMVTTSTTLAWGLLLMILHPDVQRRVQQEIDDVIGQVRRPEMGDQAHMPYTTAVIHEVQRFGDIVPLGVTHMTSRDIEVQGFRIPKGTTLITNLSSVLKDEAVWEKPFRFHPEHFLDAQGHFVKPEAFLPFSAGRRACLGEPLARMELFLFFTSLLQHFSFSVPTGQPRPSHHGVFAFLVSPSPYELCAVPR
Chain of Cytochrome P450 2C9 (P11712 whole entry): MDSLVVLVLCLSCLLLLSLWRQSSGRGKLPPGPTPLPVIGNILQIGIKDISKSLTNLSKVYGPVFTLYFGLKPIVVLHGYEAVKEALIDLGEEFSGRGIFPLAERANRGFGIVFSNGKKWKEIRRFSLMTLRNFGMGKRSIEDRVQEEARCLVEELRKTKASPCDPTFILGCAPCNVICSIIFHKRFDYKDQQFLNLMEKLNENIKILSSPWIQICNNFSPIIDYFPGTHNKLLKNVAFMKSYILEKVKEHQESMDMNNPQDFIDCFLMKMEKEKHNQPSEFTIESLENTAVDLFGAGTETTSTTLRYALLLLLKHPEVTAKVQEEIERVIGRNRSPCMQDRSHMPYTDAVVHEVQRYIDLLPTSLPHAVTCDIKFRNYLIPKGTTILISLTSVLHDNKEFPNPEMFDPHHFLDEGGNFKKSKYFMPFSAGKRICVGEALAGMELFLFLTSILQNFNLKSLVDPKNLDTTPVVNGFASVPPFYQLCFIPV

Compound | Stabilty [1] [%] | Stabilty [2] [%] | further results
O=C(NCC1(O)CC1)[C@@H]1CC[C@@]2(S(=O)(=O)c3ccc(F)cc3)c3ccc(C(F)(C(F)(F)F)C(F)(F)F)cc3CC[C@@H]12 | 26 | 19 | –
O=C(NCC1(O)CCC1)[C@@H]1CC[C@@]2(S(=O)(=O)c3ccc(F)cc3)c3ccc(C(F)(C(F)(F)F)C(F)(F)F)cc3CC[C@@H]12 | 57 | 74 | –
O=C(NCC1(O)CCCC1)[C@@H]1CC[C@@]2(S(=O)(=O)c3ccc(F)cc3)c3ccc(C(F)(C(F)(F)F)C(F)(F)F)cc3CC[C@@H]12 | 41 | 22 | –
O=C(NCC1(O)CCCCC1)[C@@H]1CC[C@@]2(S(=O)(=O)c3ccc(F)cc3)c3ccc(C(F)(C(F)(F)F)C(F)(F)F)cc3CC[C@@H]12 | 38 | 5 | –
O=C(NC[C@H](O)C(F)(F)F)[C@@H]1CC[C@@]2(S(=O)(=O)c3ccc(F)cc3)c3ccc(C(F)(C(F)(F)F)C(F)(F)F)cc3CC[C@@H]12 | 100 | 100 | –
C[C@@H](CO)NC(=O)[C@@H]1CC[C@@]2(S(=O)(=O)c3ccc(F)cc3)c3ccc(C(F)(C(F)(F)F)C(F)(F)F)cc3CC[C@@H]12 | 55 | 53 | –
C[C@H](CO)NC(=O)[C@@H]1CC[C@@]2(S(=O)(=O)c3ccc(F)cc3)c3ccc(C(F)(C(F)(F)F)C(F)(F)F)cc3CC[C@@H]12 | 39 | 46 | –

More lines, main results first:

Stabilty [1] [%] | Stabilty [2] [%] | Compound | further results
14 | 75 | CC(C)(O)C(C)(C)NC(=O)[C@@H]1CC[C@@]2(S(=O)(=O)c3ccc(F)cc3)c3ccc(C(F)(C(F)(F)F)C(F)(F)F)cc3CC[C@@H]12 | –
78 | 86 | O=C(NCCO)[C@@H]1CC[C@@]2(S(=O)(=O)c3ccc(F)cc3)c3ccc(C(F)(C(F)(F)F)C(F)(F)F)cc3CC[C@@H]12 | –
51 | 56 | C[C@@H](O)CNC(=O)[C@@H]1CC[C@@]2(S(=O)(=O)c3ccc(F)cc3)c3ccc(C(F)(C(F)(F)F)C(F)(F)F)cc3CC[C@@H]12 | –
41 | 34 | C[C@H](O)CNC(=O)[C@@H]1CC[C@@]2(S(=O)(=O)c3ccc(F)cc3)c3ccc(C(F)(C(F)(F)F)C(F)(F)F)cc3CC[C@@H]12 | –
77 | 99 | CC(C)(O)CNC(=O)[C@@H]1CC[C@@]2(S(=O)(=O)c3ccc(F)cc3)c3ccc(C(F)(C(F)(F)F)C(F)(F)F)cc3CC[C@@H]12 | Fu [3]: 0.5%; INH [4]: > 50 µM; INH [5]: > 10 µM; half-life [6]: 1.35 h; Papp A→B [7]: 150 nm/s; INH [8]: > 10 µM; INH [9]: > 10 µM; Fu [10]: 0.4%; INH [11]: > 10 µM; INH [12]: > 10 µM; half-life [13]: 0.683 h
